From patent US20080009418A1, “Selective Inhibitors” (Alchemia LTD., priority 2004, published 2008)

What was measured:
[1] = target: T1, Human δ-opioid (DOP) (Homo sapiens, UniProt P41143); experiment: Radioligand binding, human δ-opioid (DOP) membranes, FlashPlate, [3H]-Bremazocine; details: compound at 10 μM; [3H]-Bremazocine, FlashPlate
T1 construct: purchased Perkin Elmer Biosignal
Outline: (§1)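 Cloned human receptor membranes were coated onto FlashPlate wells and incubated with radioligand and compound (added from a 0.5 mM DMSO daughter plate) for 1 hour at room temperature in the dark. Scintillation counting gave percent inhibition, with DMSO defining total and reference ligand defining non-specific binding.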

[2] = target: T2, Human κ-Opioid (KOP) (Homo sapiens, UniProt P41145); experiment: Radioligand binding, human κ-opioid (KOP) membranes, filtration, [3H]-Diprenorphine; details: compound at 10 μM; [3H]-Diprenorphine, filtration
T2 construct: purchased Perkin Elmer Biosignal
Outline: (§2)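 Membranes from cloned human receptors were incubated with compound and radioligand for 1 hour at room temperature. Bound ligand was collected on 0.3% PEI-soaked filters, washed with cold 50 mM Tris-HCl pH 7.4, and counted by scintillation. Percent inhibition was computed against DMSO totals and reference-ligand nonspecific wells.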

[3] = target: T3, Human Melanocortin (MC3) (Homo sapiens, UniProt P41968); experiment: Radioligand binding, human melanocortin MC3 membranes, FlashPlate, [125I]-NDP-αMSH; details: compound at 10 μM; [125I]-NDP-αMSH, FlashPlate
T3 construct: purchased Perkin Elmer Biosignal
Outline: as §1

[4] = target: T4, Human Melanocortin (MC4) (Homo sapiens, UniProt P32245); experiment: Radioligand binding, human melanocortin MC4 membranes, FlashPlate, [125I]-NDP-αMSH; details: compound at 10 μM; [125I]-NDP-αMSH, FlashPlate
T4 construct: purchased Perkin Elmer Biosignal
Outline: as §1

[5] = target: T5, Human melanocortin (MC5) (Homo sapiens, UniProt P33032); experiment: Radioligand binding, human melanocortin MC5 membranes, FlashPlate, [125I]-NDP-αMSH; details: compound at 10 μM; [125I]-NDP-αMSH, FlashPlate
T5 construct: purchased Perkin Elmer Biosignal
Outline: as §1

[6] = target: T6, Human melanin-concentrating hormone (MCH1) (Homo sapiens, UniProt Q99705); experiment: Radioligand binding, human melanin-concentrating hormone MCH1 membranes, FlashPlate, [125I]-S36057; details: compound at 10 μM; [125I]-S36057, FlashPlate
T6 construct: purchased Perkin Elmer Biosignal
Outline: as §1

[7] = target: T7, Human μ-opioid (MOP) (Homo sapiens, UniProt P35372); experiment: Radioligand binding, human μ-opioid (MOP) membranes, FlashPlate, [3H]-Naloxone; details: compound at 10 μM; [3H]-Naloxone, FlashPlate
T7 construct: purchased Perkin Elmer Biosignal
Outline: as §1

[8] = target: T8, Human neurokinin (NK1) (Homo sapiens, UniProt P25103); experiment: Radioligand binding, human neurokinin NK1 membranes, filtration, [125I]-Substance P; details: compound at 10 μM; [125I]-Substance P, filtration
T8 construct: purchased Perkin Elmer Biosignal
Outline: as §2

[9] = target: T9, Human neuropeptide Y (NPY-Y1) (Homo sapiens, UniProt P25929); experiment: Radioligand binding, human neuropeptide Y NPY-Y1 membranes, FlashPlate, [125I]-PYY; details: compound at 10 μM; [125I]-PYY, FlashPlate
T9 construct: purchased Perkin Elmer Biosignal
T9 sequence (P25929 1-384): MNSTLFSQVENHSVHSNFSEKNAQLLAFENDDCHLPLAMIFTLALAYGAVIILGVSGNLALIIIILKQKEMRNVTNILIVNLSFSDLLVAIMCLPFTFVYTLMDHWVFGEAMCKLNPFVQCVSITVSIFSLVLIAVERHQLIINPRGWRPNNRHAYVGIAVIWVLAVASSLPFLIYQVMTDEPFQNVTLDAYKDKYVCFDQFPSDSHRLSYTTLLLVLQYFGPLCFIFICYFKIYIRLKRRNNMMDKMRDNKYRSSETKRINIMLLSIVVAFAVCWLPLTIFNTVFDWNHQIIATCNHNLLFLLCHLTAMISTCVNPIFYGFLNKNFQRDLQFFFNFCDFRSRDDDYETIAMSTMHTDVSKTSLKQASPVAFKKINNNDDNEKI
Outline: as §1

[10] = target: T10, Human opioid (ORL1) (Homo sapiens, UniProt P41146); experiment: Radioligand binding, human opioid ORL1 membranes, FlashPlate, [125I]-Nociceptin; details: compound at 10 μM; [125I]-Nociceptin, FlashPlate
T10 construct: purchased Perkin Elmer Biosignal
Outline: as §1

[11] = target: T11, Mouse urotensin (mUR2) (Mus musculus, UniProt Q8VIH9); experiment: Radioligand binding, mouse urotensin mUR2 membranes, FlashPlate, [125I]-Urotensin II; details: compound at 10 μM; [125I]-Urotensin II, FlashPlate
T11 construct: purchased Perkin Elmer Biosignal
T11 sequence (Q8VIH9 1-385): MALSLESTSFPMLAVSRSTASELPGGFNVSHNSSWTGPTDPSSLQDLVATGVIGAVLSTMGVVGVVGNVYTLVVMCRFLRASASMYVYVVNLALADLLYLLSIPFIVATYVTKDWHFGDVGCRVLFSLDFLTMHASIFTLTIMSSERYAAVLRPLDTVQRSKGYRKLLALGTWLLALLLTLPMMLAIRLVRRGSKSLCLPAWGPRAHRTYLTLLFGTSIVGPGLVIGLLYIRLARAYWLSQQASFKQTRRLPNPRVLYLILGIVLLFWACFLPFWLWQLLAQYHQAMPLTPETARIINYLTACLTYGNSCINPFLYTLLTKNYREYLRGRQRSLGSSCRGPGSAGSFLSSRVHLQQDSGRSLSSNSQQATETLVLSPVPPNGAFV
Outline: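 Cloned mouse urotensin (mUR2) receptor membranes from Perkin Elmer Biosignal were immobilized in FlashPlate microplates using a proprietary coating. Each well got 19.5 μl buffer, then 0.5 μl of DMSO, reference ligand, or compound. Adding 5 μl of [125I]-Urotensin II, diluted to 5× final concentration in binding buffer, started binding. Plates were sealed with TopSeal-A and incubated 1 hour at room temperature in the dark. Wells were counted for 30 seconds each on a TopCount after a 60-second delay, and percentage inhibition was calculated.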

T4 sequence (P32245 whole entry): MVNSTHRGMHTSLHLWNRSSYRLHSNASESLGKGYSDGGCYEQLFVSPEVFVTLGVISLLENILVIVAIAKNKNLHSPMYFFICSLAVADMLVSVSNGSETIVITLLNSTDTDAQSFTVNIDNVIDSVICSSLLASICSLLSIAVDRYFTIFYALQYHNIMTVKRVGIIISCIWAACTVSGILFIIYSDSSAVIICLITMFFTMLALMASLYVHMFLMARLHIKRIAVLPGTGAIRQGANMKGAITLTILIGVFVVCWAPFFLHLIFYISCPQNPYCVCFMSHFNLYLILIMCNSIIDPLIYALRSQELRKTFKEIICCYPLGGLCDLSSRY
T10 sequence (P41146 whole entry): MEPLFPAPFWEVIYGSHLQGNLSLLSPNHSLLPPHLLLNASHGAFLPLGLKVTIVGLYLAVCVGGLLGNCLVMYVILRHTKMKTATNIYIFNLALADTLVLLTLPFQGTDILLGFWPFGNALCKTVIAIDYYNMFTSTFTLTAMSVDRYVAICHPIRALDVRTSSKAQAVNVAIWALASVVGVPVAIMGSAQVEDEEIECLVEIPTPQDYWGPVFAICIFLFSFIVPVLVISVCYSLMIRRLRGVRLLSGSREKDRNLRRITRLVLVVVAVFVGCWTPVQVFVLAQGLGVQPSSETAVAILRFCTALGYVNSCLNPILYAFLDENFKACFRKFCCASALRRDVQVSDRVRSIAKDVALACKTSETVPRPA
T1 sequence (P41143 whole entry): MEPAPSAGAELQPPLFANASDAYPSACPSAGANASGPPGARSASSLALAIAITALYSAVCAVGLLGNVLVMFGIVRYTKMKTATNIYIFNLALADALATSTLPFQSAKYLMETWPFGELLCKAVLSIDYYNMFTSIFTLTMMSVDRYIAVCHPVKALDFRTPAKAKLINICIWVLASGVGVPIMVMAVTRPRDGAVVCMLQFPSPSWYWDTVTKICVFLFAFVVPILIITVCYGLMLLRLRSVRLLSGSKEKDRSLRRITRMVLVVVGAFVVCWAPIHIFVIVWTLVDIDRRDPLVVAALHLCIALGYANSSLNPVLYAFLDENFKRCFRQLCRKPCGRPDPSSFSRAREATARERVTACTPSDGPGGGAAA
T2 sequence (P41145 whole entry): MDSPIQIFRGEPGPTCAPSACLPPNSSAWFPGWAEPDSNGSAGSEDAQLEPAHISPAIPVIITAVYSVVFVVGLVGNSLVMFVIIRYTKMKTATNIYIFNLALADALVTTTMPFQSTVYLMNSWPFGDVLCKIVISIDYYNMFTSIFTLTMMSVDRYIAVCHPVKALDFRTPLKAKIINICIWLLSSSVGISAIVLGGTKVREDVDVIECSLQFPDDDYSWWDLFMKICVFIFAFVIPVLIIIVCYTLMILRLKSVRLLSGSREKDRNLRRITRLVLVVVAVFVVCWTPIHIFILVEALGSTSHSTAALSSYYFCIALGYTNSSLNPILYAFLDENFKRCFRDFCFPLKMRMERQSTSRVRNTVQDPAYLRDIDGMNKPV
T7 sequence (P35372 whole entry): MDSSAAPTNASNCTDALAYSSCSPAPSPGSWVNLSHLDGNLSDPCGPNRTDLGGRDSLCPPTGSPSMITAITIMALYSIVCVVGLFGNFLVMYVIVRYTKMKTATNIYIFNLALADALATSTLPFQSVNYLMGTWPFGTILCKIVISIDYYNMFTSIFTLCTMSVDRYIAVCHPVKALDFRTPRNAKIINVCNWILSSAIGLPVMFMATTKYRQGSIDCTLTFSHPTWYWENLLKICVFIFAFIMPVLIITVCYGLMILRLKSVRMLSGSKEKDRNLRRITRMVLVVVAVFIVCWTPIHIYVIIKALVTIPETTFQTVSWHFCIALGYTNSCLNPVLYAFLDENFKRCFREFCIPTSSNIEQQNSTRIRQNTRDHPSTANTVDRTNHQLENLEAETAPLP
T3 sequence (P41968 whole entry): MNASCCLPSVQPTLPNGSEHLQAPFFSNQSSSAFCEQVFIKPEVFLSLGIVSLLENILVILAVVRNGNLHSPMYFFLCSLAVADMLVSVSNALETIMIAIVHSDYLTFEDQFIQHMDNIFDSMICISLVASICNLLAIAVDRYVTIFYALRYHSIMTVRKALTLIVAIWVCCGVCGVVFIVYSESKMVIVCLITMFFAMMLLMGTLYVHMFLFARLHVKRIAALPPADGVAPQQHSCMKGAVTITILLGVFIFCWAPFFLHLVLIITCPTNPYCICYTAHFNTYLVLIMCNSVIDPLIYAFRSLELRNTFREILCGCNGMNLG
T8 sequence (P25103 whole entry): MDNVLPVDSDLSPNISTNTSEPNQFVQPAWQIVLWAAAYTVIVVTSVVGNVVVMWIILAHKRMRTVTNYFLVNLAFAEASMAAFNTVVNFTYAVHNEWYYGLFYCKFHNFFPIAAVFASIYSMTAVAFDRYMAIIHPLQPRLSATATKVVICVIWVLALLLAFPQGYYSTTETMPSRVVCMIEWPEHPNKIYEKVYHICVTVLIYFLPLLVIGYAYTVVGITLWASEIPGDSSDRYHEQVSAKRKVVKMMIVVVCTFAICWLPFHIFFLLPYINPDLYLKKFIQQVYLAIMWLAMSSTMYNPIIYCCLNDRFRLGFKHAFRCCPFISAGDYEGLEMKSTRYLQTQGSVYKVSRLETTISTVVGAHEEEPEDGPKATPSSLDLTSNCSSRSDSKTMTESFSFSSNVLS
T5 sequence (P33032 whole entry): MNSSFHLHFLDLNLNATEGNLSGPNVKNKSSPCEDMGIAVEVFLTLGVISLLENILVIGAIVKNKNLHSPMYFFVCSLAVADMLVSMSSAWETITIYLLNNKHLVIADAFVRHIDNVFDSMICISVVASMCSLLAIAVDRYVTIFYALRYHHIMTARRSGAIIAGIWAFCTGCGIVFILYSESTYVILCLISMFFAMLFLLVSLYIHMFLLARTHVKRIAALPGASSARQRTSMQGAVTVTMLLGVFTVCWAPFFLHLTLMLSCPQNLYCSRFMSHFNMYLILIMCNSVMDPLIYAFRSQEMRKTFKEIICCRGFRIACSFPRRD
T6 sequence (Q99705 whole entry): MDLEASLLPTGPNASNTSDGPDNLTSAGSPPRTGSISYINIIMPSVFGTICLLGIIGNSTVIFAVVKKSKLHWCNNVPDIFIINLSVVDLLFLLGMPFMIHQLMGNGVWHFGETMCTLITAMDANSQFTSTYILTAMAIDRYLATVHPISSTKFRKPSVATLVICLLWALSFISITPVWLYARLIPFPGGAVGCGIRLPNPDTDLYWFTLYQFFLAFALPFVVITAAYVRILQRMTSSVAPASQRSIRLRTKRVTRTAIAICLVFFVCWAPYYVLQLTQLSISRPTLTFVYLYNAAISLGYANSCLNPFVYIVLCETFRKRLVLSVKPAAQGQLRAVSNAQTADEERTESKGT

SMILES	A1: inhibition of radioligand binding [1]	A2: inhibition of radioligand binding [2]	A3: inhibition of radioligand binding [3]	A4: inhibition of radioligand binding [4]	A5: inhibition of radioligand binding [5]	A6: inhibition of radioligand binding [6]	A7: inhibition of radioligand binding [7]	A8: inhibition of radioligand binding [8]	A9: inhibition of radioligand binding [9]	A10: inhibition of radioligand binding [10]	A11: inhibition of radioligand binding [11]
COCC1OC(OCCc2ccccc2)C(NC(=O)CN)C(OCc2ccc3ccccc3c2)C1O (stereo not drawn) [compound 225]	− (“−” indicates less than 50% inhibition at 10 μM)	− (“−” indicates less than 50% inhibition at 10 μM)	− (“−” indicates less than 50% inhibition at 10 μM)	− (“−” indicates less than 50% inhibition at 10 μM)	− (“−” indicates less than 50% inhibition at 10 μM)	− (“−” indicates less than 50% inhibition at 10 μM)	− (“−” indicates less than 50% inhibition at 10 μM)	+ (“+” indicates greater than 50% inhibition at 10 μM)	− (“−” indicates less than 50% inhibition at 10 μM)	− (“−” indicates less than 50% inhibition at 10 μM)	− (“−” indicates less than 50% inhibition at 10 μM)
COCC1OC(OCCc2ccccc2)C(NC(=O)CNC(=N)N)C(OCc2ccc3ccccc3c2)C1O (stereo not drawn) [compound 226]	− (“−” indicates less than 50% inhibition at 10 μM)	− (“−” indicates less than 50% inhibition at 10 μM)	+ (“+” indicates greater than 50% inhibition at 10 μM)	+ (“+” indicates greater than 50% inhibition at 10 μM)	+ (“+” indicates greater than 50% inhibition at 10 μM)	− (“−” indicates less than 50% inhibition at 10 μM)	− (“−” indicates less than 50% inhibition at 10 μM)	+ (“+” indicates greater than 50% inhibition at 10 μM)	− (“−” indicates less than 50% inhibition at 10 μM)	− (“−” indicates less than 50% inhibition at 10 μM)	− (“−” indicates less than 50% inhibition at 10 μM)
COCC1OC(OCCc2ccccc2)C(NC(=O)CCN)C(OCc2ccc3ccccc3c2)C1O (stereo not drawn) [compound 227]	− (“−” indicates less than 50% inhibition at 10 μM)	− (“−” indicates less than 50% inhibition at 10 μM)	− (“−” indicates less than 50% inhibition at 10 μM)	− (“−” indicates less than 50% inhibition at 10 μM)	− (“−” indicates less than 50% inhibition at 10 μM)	− (“−” indicates less than 50% inhibition at 10 μM)	− (“−” indicates less than 50% inhibition at 10 μM)	+ (“+” indicates greater than 50% inhibition at 10 μM)	− (“−” indicates less than 50% inhibition at 10 μM)	− (“−” indicates less than 50% inhibition at 10 μM)	− (“−” indicates less than 50% inhibition at 10 μM)
COCC1OC(OCCc2ccccc2)C(NC(=O)CCCN)C(OCc2ccc3ccccc3c2)C1O (stereo not drawn) [compound 228]	− (“−” indicates less than 50% inhibition at 10 μM)	− (“−” indicates less than 50% inhibition at 10 μM)	− (“−” indicates less than 50% inhibition at 10 μM)	− (“−” indicates less than 50% inhibition at 10 μM)	+ (“+” indicates greater than 50% inhibition at 10 μM)	− (“−” indicates less than 50% inhibition at 10 μM)	− (“−” indicates less than 50% inhibition at 10 μM)	+ (“+” indicates greater than 50% inhibition at 10 μM)	− (“−” indicates less than 50% inhibition at 10 μM)	− (“−” indicates less than 50% inhibition at 10 μM)	− (“−” indicates less than 50% inhibition at 10 μM)
COCC1OC(OCCc2ccccc2)C(NC(=O)CCCNC(=N)N)C(OCc2ccc3ccccc3c2)C1O (stereo not drawn) [compound 229]	− (“−” indicates less than 50% inhibition at 10 μM)	− (“−” indicates less than 50% inhibition at 10 μM)	− (“−” indicates less than 50% inhibition at 10 μM)	+ (“+” indicates greater than 50% inhibition at 10 μM)	+ (“+” indicates greater than 50% inhibition at 10 μM)	+ (“+” indicates greater than 50% inhibition at 10 μM)	− (“−” indicates less than 50% inhibition at 10 μM)	+ (“+” indicates greater than 50% inhibition at 10 μM)	− (“−” indicates less than 50% inhibition at 10 μM)	− (“−” indicates less than 50% inhibition at 10 μM)	− (“−” indicates less than 50% inhibition at 10 μM)
COCC1OC(OCc2ccc3ccccc3c2)C(NC(=O)CNC(=N)N)C(OCc2ccccc2)C1O (stereo not drawn) [compound 230]	− (“−” indicates less than 50% inhibition at 10 μM)	− (“−” indicates less than 50% inhibition at 10 μM)	− (“−” indicates less than 50% inhibition at 10 μM)	− (“−” indicates less than 50% inhibition at 10 μM)	+ (“+” indicates greater than 50% inhibition at 10 μM)	− (“−” indicates less than 50% inhibition at 10 μM)	− (“−” indicates less than 50% inhibition at 10 μM)	+ (“+” indicates greater than 50% inhibition at 10 μM)	− (“−” indicates less than 50% inhibition at 10 μM)	− (“−” indicates less than 50% inhibition at 10 μM)	− (“−” indicates less than 50% inhibition at 10 μM)
